For orientation: EC50 means the midpoint of the concentration-response curve.

We go through 17 compounds from patent publication US20200223837A1, “BENZOFURAN AMIDES AND HETEROAROMATIC ANALOGUES THEREOF FOR USE IN THERAPY” (European Molecular Biology Laboratory, priority 2017, published 2020).

Structures are written as SMILES.

In this assay the test system is EGR1 promoter. Kind of assay: EGR1 reporter assay (luciferase) in genomically engineered HeLa cell line. Format: cell-based. The following applies: Homo sapiens; EGR1 reporter HeLa cells, luciferase activity after 24 hours with compound. From the text: The compounds of the present invention can be characterized for their effect on expression of egr1 (early growth response protein 1) using an EGR1 reporter cell line.
The HeLa cell line was genetically modified to provide a simple, robust and highly reproducible cell-based assay reporting the activity of an endogenous EGR1 promoter. In brief, a construct encoding EGFP and luciferase proteins, separated by a self-cleaving P2A peptide was inserted, using CRISPR, immediately downstream (3′) to the promoter of endogenous EGR1. Upon treatment with compounds, cells express EGFP and luciferase from EGR1 promoter, which can be readily detected either in live cells using microscopy or cytometry, or through detection of luciferase activity in cell lysates.
To achieve stable genomic integration of an EGR1-promoter dual reporter, two plasmids were generated: one contained the reporter construct (eGFP-P2A-luciferase) flanked by homology arms that direct insertion into genomic DNA, by homologous recombination, of a break in genomic DNA generated by guide RNA targeted cleavage by Cas9 endonuclease. The gRNA expressing plasmid was based on px330 (56), into which a gRNA sequence that targets a break in gDNA close to the start codon of EGR1 was cloned. The left homology arm (encoding part of EGR1 promoter adjacent to its start codon) and right homology arm (encoding […] of start codon of EGR1) were cloned from gDNA using the following primers: […]
The present compounds can be tested, e.g. by using a HeLa cell line carrying an EGR1 reporter construct which allows for expression of luciferase and eGFP (enhanced GFP) controlled by the EGR1 promoter. For this reporter cells are seeded in the wells of a 384 well microtiter plate at a density of 2000 cells per well in 48 μl of DMEM supplemented with 4.5 g/l glucose, 2 mM glutamine and 10% FCS and are incubated for 24 hours at 37° C. with 5% CO2 and 95% humidity. Then, an eleven point 1:3 serial dilution of each test compound, from an initial concentration of 100 μM, is prepared in DMSO and the dilutions are added to the cells in a volume of 2 μl per well. The cells are incubated for a further 24 hours, after which the luciferase activity of each well is determined by addition of 25 μl of luciferase substrate reaction mixture (Britelite™ plus, Perkin Elmer) and measuring the bioluminescence light output (EnVision Xcite plate reader, PerkinElmer).
The compound of example 64 served as a positive control for this EGR1 reporter assay. The compound of example 64 had been identified in an initial high throughput screening campaign.
`O=C(Cc1coc2ncccc12)Nc1ncc(C(F)(F)F)s1` [Example 106, 2-(Furo[2,3-b]pyridin-3-yl)-N-(5-(trifluoromethyl)thiazol-2-yl)acetamide]: the EC50 fell in the range of 0.01 to 10 µM. The result for `CCc1ccc2c(CC(=O)Nc3ncc(C)s3)coc2c1` [Example 40, 2-(6-Ethylbenzofuran-3-yl)-N-(5-methylthiazol-2-yl)acetamide] reads 0.01 to 10 µM; that for `Cc1c(Cl)ccc2c(CC(=O)Nc3ncc(C(F)(F)F)s3)coc12` [Example 94, 2-(6-Chloro-7-methyl-benzofuran-3-yl)-N-[5-(trifluoromethyl)thiazol-2-yl]acetamide], 0.01 to 10 µM; that for `O=C(Cc1coc2cc(Cl)ccc12)Nc1ncc(C(F)(F)F)[nH]1` [Example 38, 2-(6-Chlorobenzofuran-3-yl)-N-[5-(trifluoromethyl)-1H-imidazol-2-yl]acetamide], 0.01 to 10 µM.

Turning to `Cc1ccc2c(CC(=O)Nc3nc(-c4ccc(C)o4)cs3)coc2c1` [Example 36, 2-(6-Methylbenzofuran-3-yl)-N-[4-(5-methyl-2-furyl)thiazol-2-yl]acetamide], the EC50 lay within 0.01 to 10 µM.

With `CCc1cnc(NC(=O)Cc2coc3c(C)c(C)ccc23)s1` [Example 98, 2-(6,7-Dimethylbenzofuran-3-yl)-N-(5-ethylthiazol-2-yl)acetamide], the EC50 lay within 0.01 to 10 µM. For the compound `COc1ccc2c(CC(=O)Nc3nc(-c4ccc(C5CCCCC5)cc4)cs3)coc2c1` [Example 76, N-[4-(4-Cyclohexylphenyl)thiazol-2-yl]-2-(6-methoxybenzofuran-3-yl)acetamide], the EC50 lay within 0.01 to 10 µM. On to `COc1c(C)ccc2c(CC(=O)Nc3ncc(C(F)(F)F)s3)coc12` [Example 97, 2-(7-Methoxy-6-methyl-benzofuran-3-yl)-N-[5-(trifluoromethyl)thiazol-2-yl]acetamide], for which the 50% effective concentration (EC50) is 0.01 to 10 µM. Take `Cc1ccc2c(CC(=O)Nc3ncc(C)s3)coc2c1` [Example 48, 2-(6-Methylbenzofuran-3-yl)-N-(5-methylthiazol-2-yl)acetamide]: the EC50 fell in the range of 0.01 to 10 µM. Consider `Cc1cc2occ(CC(=O)N(c3ccc(F)cc3)c3nc4ccccc4s3)c2cc1C(C)C` [Example 16, N-(1,3-Benzothiazol-2-yl)-N-(4-fluorophenyl)-2-(5-isopropyl-6-methyl-benzofuran-3-yl)acetamide], for which the EC50 was in the range of 10 to 100 µM. Turning to `COc1ccc2c(CC(=O)Nc3nc(-c4cccs4)cs3)coc2c1` [Example 37, 2-(6-Methoxybenzofuran-3-yl)-N-[4-(2-thienyl)thiazol-2-yl]acetamide], the EC50 is 0.01 to 10 µM. For the compound `Cc1cnc(NC(=O)Cc2coc3ncccc23)s1` [Example 104, 2-(Furo[2,3-b]pyridin-3-yl)-N-(5-methylthiazol-2-yl)acetamide], the EC50 lay in the range of 10 to 100 µM. The result for `O=C(Cc1coc2ccccc12)Nc1ncc(C(F)(F)F)s1` [Example 6, 2-(Benzofuran-3-yl)-N-[5-(trifluoromethyl)thiazol-2-yl]acetamide] reads 10 to 100 µM; that for `COc1ccc(-c2csc(NC(=O)Cc3coc4cc(C)ccc34)n2)cc1OC` [Example 50, N-[4-(3,4-Dimethoxyphenyl)thiazol-2-yl]-2-(6-methylbenzofuran-3-yl)acetamide], 0.01 to 10 µM; that for `COc1ccc(-c2csc(NC(=O)Cc3coc4cc(OC)ccc34)n2)cc1` [Example 71, 2-(6-Methoxybenzofuran-3-yl)-N-[4-(4-methoxyphenyl)thiazol-2-yl]acetamide], 0.01 to 10 µM. For `O=C(CCc1coc2ccccc12)Nc1ncc(C(F)(F)F)s1` [Example 44, 3-(Benzofuran-3-yl)-N-[5-(trifluoromethyl)thiazol-2-yl]propanamide] the value was 0.01 to 10 µM. The result for `Cc1c[nH]c(NC(=O)Cc2coc3cc4c(cc23)CCC4)n1` [Example 23, 2-(6,7-dihydro-5H-cyclopenta[f]benzofuran-3-yl)-N-(5-methyl-1H-imidazol-2-yl)acetamide] reads 0.01 to 10 µM.
